The structures appear in SMILES notation.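 1) Cells in 96-well plates. 2) Compound, 48 h, 5 concentrations. 3) Linear interpolation between surrounding doses. 4) Unreached endpoint = highest concentration. Abbreviation: GI50, concentration required for 50% inhibition of growth. At the TGI there is no net growth.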

The record followed here is PubChem BioAssay (NCI).

Test systems include U251 CNS; HOP-62 NSCLC; M14 melanoma; LOX IMVI melanoma; RPMI-8226 leukemia; CCRF-CEM leukemia; SK-MEL-5 melanoma; SK-MEL-28 melanoma; SNB-75 CNS; EKVX NSCLC.
Assay in all cases: inhibition of tumour cell growth, NCI panel, 48 h

On to `COc1c(C(N)=O)cc(-c2ccc(Cl)cc2)cc1-c1ccc(S(N)(=O)=O)cc1`, for which the GI50 with U251 CNS was 9.52 µM; with HOP-62 NSCLC it was 18.8 µM; in the experiment on M14 melanoma, more than 17.2 µM; with LOX IMVI melanoma it was 12.4 µM; in the experiment with RPMI-8226 leukemia it was 9.13 µM; with CCRF-CEM leukemia, 8.53 µM. In addition, the GI50 in the experiment on SK-MEL-5 melanoma is 7.4 µM; in the experiment with SK-MEL-28 melanoma, 16.9 µM; in the experiment with SNB-75 CNS it was 7.76 µM; with EKVX NSCLC it was 8.91 µM. For the same compound, the TGI in the experiment on U251 CNS, in the experiment on HOP-62 NSCLC, in the experiment with M14 melanoma, in the experiment with LOX IMVI melanoma, in the experiment with RPMI-8226 leukemia and in the experiment with CCRF-CEM leukemia was more than 25 µM throughout. Moreover, the TGI in the experiment with SK-MEL-5 melanoma, in the experiment with SK-MEL-28 melanoma, in the experiment with SNB-75 CNS and in the experiment on EKVX NSCLC was more than 25 µM throughout.

Turning to `OC(c1cc(C(F)(F)F)nc2c(Cl)cc(Cl)cc12)C1CCCCN1` (centres undefined), the TGI in the experiment on U251 CNS was more than 48.3 µM; in the experiment with HOP-62 NSCLC it was 18.5 µM; with M14 melanoma it was more than 44 µM; in the experiment with LOX IMVI melanoma it was 14.8 µM; in the experiment on RPMI-8226 leukemia, 9.19 µM; with CCRF-CEM leukemia it was 4.08 µM. For the same compound, the TGI in the experiment with SK-MEL-5 melanoma was 22.6 µM; with SK-MEL-28 melanoma, 29.5 µM; in the experiment on SNB-75 CNS, 24.4 µM; in the experiment with EKVX NSCLC it was more than 100 µM.

`Cc1ccc(NC(=O)COc2ccc(Cl)cc2)cc1Cl`: the TGI in the experiment with U251 CNS was more than 100 µM; in the experiment on HOP-62 NSCLC it was more than 100 µM; with M14 melanoma it was more than 100 µM; in the experiment on LOX IMVI melanoma it was more than 100 µM; in the experiment on RPMI-8226 leukemia, more than 100 µM; with CCRF-CEM leukemia it was 85.9 µM. The TGI in the experiment with SK-MEL-5 melanoma, in the experiment on SK-MEL-28 melanoma, in the experiment with SNB-75 CNS and in the experiment on EKVX NSCLC was more than 100 µM throughout.

With `CCCCCCCCCC1CC(=O)OC2=C1C(=O)CCC2` (centres undefined), the TGI with U251 CNS, with HOP-62 NSCLC, in the experiment on M14 melanoma, with LOX IMVI melanoma, with RPMI-8226 leukemia and in the experiment with CCRF-CEM leukemia was more than 100 µM in each case. Besides, the TGI in the experiment on SK-MEL-5 melanoma, in the experiment on SK-MEL-28 melanoma, with SNB-75 CNS and in the experiment on EKVX NSCLC was more than 100 µM each time.

Consider `O=C1OC(OC/C(Br)=C(\Br)COC2OC(=O)C(Cl)=C2Cl)C(Cl)=C1Cl` (centres undefined), for which the TGI is 19 µM in the experiment with U251 CNS; 29.5 µM in the experiment on HOP-62 NSCLC; 10.4 µM in the experiment on M14 melanoma; 8.29 µM with LOX IMVI melanoma; 3.94 µM with RPMI-8226 leukemia; 2.34 µM in the experiment on CCRF-CEM leukemia. For the same compound, the TGI with SK-MEL-5 melanoma came to 22.3 µM; in the experiment on SK-MEL-28 melanoma, 22.1 µM; in the experiment on SNB-75 CNS, 39.4 µM; in the experiment on EKVX NSCLC it was 22.8 µM.

Take `C/C(=N\N=C(N)N)C(CN1CCOCC1)C(c1ccccc1)c1c(O)c2ccccc2oc1=O` (centres undefined): the TGI in the experiment on U251 CNS, in the experiment with HOP-62 NSCLC, with M14 melanoma, with LOX IMVI melanoma, with RPMI-8226 leukemia and in the experiment on CCRF-CEM leukemia was more than 100 µM in each case. For the same compound, the TGI in the experiment with SK-MEL-5 melanoma is more than 100 µM; in the experiment with SK-MEL-28 melanoma, more than 100 µM; in the experiment on SNB-75 CNS, 99.4 µM; in the experiment with EKVX NSCLC it was more than 100 µM.

For `NC1CC(=O)c2c(-c3cccs3)sc(-c3cccs3)c21` (centres undefined), the GI50 in the experiment on U251 CNS is 16.7 µM; with HOP-62 NSCLC, 73.4 µM; in the experiment on M14 melanoma it was 37.3 µM; in the experiment on LOX IMVI melanoma, 12.7 µM; with RPMI-8226 leukemia, 12.3 µM; in the experiment on CCRF-CEM leukemia, 3.89 µM. In addition, the GI50 in the experiment on SK-MEL-5 melanoma is 28 µM; in the experiment on SK-MEL-28 melanoma, 19.2 µM; with SNB-75 CNS it was 22.6 µM; with EKVX NSCLC it was 51.3 µM. For the same compound, the TGI with U251 CNS was 34 µM; in the experiment on HOP-62 NSCLC it was more than 100 µM; with M14 melanoma it was more than 100 µM; in the experiment on LOX IMVI melanoma it was 29 µM; in the experiment with RPMI-8226 leukemia it was 49.7 µM; in the experiment on CCRF-CEM leukemia, more than 100 µM. Also, the TGI in the experiment on SK-MEL-5 melanoma is more than 100 µM; in the experiment on SK-MEL-28 melanoma, 39.7 µM; in the experiment with SNB-75 CNS it was 89.8 µM; with EKVX NSCLC, more than 100 µM.

With `CCOP(=O)(OCC)/C(=C/n1c(=S)[nH]c2ccccc21)C(=O)OC`, the TGI in the experiment with U251 CNS, in the experiment on HOP-62 NSCLC, with M14 melanoma, with LOX IMVI melanoma, in the experiment on RPMI-8226 leukemia and in the experiment with CCRF-CEM leukemia was more than 100 µM in each case. For the same compound, the TGI with SK-MEL-5 melanoma, with SK-MEL-28 melanoma, with SNB-75 CNS and in the experiment with EKVX NSCLC was more than 100 µM in each case.

Regarding `COC(=O)Nc1nc2ccc(C(=O)c3cccc(I)c3)cc2[nH]1`, the GI50 is 0.0559 µM in the experiment with U251 CNS; 0.304 µM in the experiment with HOP-62 NSCLC; 0.072 µM with M14 melanoma; 0.0612 µM in the experiment with LOX IMVI melanoma; 0.0365 µM with RPMI-8226 leukemia; 0.0402 µM in the experiment on CCRF-CEM leukemia. The GI50 in the experiment with SK-MEL-5 melanoma was 0.068 µM; in the experiment on SK-MEL-28 melanoma, 1.13 µM; in the experiment on SNB-75 CNS, 0.0514 µM; with EKVX NSCLC, 0.176 µM. Also, the TGI is 12.3 µM in the experiment on U251 CNS; 38.5 µM in the experiment on HOP-62 NSCLC; 20.7 µM in the experiment on M14 melanoma; 3.92 µM in the experiment on LOX IMVI melanoma; 1.27 µM in the experiment on RPMI-8226 leukemia; 5.26 µM in the experiment with CCRF-CEM leukemia. For the same compound, the TGI is 2.31 µM with SK-MEL-5 melanoma, more than 81.2 µM with SK-MEL-28 melanoma, 15.4 µM in the experiment with SNB-75 CNS and more than 87.9 µM in the experiment with EKVX NSCLC.

As to `CC1=CC2(C)/C=C(C)/C=C\CC(O)/C=C3/C=CC(=C4C(=O)OC2(CC1C)C4=O)OC3` (centres undefined), the GI50 in the experiment with U251 CNS is 1.64 µM; with HOP-62 NSCLC, 8.63 µM; with M14 melanoma it was 2.8 µM; in the experiment with LOX IMVI melanoma it was 1.63 µM; in the experiment on RPMI-8226 leukemia, 0.328 µM; in the experiment on CCRF-CEM leukemia, 0.673 µM. The GI50 in the experiment with SK-MEL-5 melanoma is 3.07 µM; in the experiment with SK-MEL-28 melanoma it was 1.6 µM; in the experiment with SNB-75 CNS, 2.84 µM; in the experiment with EKVX NSCLC, 3.09 µM. Also, the TGI in the experiment with U251 CNS was found to be 3.58 µM; in the experiment with HOP-62 NSCLC it was 26.2 µM; with M14 melanoma, 9.21 µM; in the experiment with LOX IMVI melanoma, 3.2 µM; in the experiment with CCRF-CEM leukemia, 7.95 µM; in the experiment with SK-MEL-5 melanoma, 11.6 µM. Besides, the results for the TGI in the experiment with SK-MEL-28 melanoma, in the experiment on SNB-75 CNS and in the experiment on EKVX NSCLC were 3.33 µM, 17.3 µM and more than 31.7 µM, respectively.

For the compound `COc1cc2[nH]c3c(c2cc1OC)CCN[C@@]31CC[C@@]2(CC3c4c(cc(OC)c(O)c42)CCN3C)C[C@@H]1OC` (some centres undefined), the TGI with U251 CNS was more than 91.4 µM; with HOP-62 NSCLC, more than 100 µM; in the experiment with M14 melanoma it was 34.1 µM; in the experiment on LOX IMVI melanoma, 41.4 µM; in the experiment on RPMI-8226 leukemia it was more than 56.2 µM; with CCRF-CEM leukemia, 94.5 µM. The TGI in the experiment on SK-MEL-5 melanoma is 30.3 µM; in the experiment with SK-MEL-28 melanoma it was 33.5 µM; in the experiment on SNB-75 CNS, 54 µM; in the experiment with EKVX NSCLC, more than 46.4 µM.
